Results as given in ChEMBL document CHEMBL1201862, “PubChem BioAssay data set” (2004).
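Growth conditions: 96-well plates. Treatment: test compound, 48 hours, 5 concentrations. Analysis: linear interpolation between bracketing concentrations; unreached endpoints set to highest concentration. GI50 marks 50% less growth.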 Activity calls are given as the source filed them. Rule as the data show it: active = GI50 up to about 1.1 µM and inactive = higher.

How the values were obtained:
Experiment in all cases: DTP human tumour cell line panel, 48 h
LOX IMVI = tested on: LOX IMVI
SK-MEL-5 = tested on: SK-MEL-5
A498 = tested on: A498
U-251 = tested on: U-251
SK-OV-3 = tested on: SK-OV-3
UACC-62 = tested on: UACC-62
SK-MEL-28 = tested on: SK-MEL-28
NCI-H522 = tested on: NCI-H522
DU-145 = tested on: DU-145
TK-10 = tested on: TK-10
SNB-19 = tested on: SNB-19
CAKI-1 = tested on: CAKI-1
HCT-116 = tested on: HCT-116
UO-31 = tested on: UO-31
MCF7 = tested on: MCF7
MDA-MB-435 = tested on: MDA-MB-435
SK-MEL-2 = tested on: SK-MEL-2
OVCAR-4 = tested on: OVCAR-4
HOP-62 = tested on: HOP-62
ACHN = tested on: ACHN
HL-60 = tested on: HL-60
RPMI-8226 = tested on: RPMI-8226
MOLT-4 = tested on: MOLT-4
KM12 = tested on: KM12
MDA-MB-231 = tested on: MDA-MB-231
OVCAR-5 = tested on: OVCAR-5
HCC 2998 = tested on: HCC 2998
HCT-15 = tested on: HCT-15
A549 = tested on: A549
HOP-92 = tested on: HOP-92
IGROV-1 = tested on: IGROV-1
SF-539 = tested on: SF-539
SW-620 = tested on: SW-620
SF-295 = tested on: SF-295
PC-3 = tested on: PC-3
MDA-N = tested on: MDA-N
T47D = tested on: T47D
RXF 393 = tested on: RXF 393
UACC-257 = tested on: UACC-257
NCI-H23 = tested on: NCI-H23
SF-268 = tested on: SF-268
NCI-H460 = tested on: NCI-H460
OVCAR-3 = tested on: OVCAR-3
OVCAR-8 = tested on: OVCAR-8
NCI/ADR-RES = tested on: NCI/ADR-RES
Hs-578T = tested on: Hs-578T
HT-29 = tested on: HT-29
BT-549 = tested on: BT-549
COLO 205 = tested on: COLO 205
EKVX = tested on: EKVX
M14 = tested on: M14
K562 = tested on: K562
Malme-3M = tested on: Malme-3M
CCRF-CEM = tested on: CCRF-CEM
786-0 = tested on: 786-0
SN12C = tested on: SN12C
NCI-H226 = tested on: NCI-H226
SNB-75 = tested on: SNB-75

In the case of `CC(=O)ON1C(=O)c2cccc3cccc(c23)C1=O`, the GI50 (LOX IMVI) is reported as 14.2 µM (inactive), the GI50 (SK-MEL-5) is reported as 13.2 µM (inactive) and the GI50 (A498) is reported as 25.8 µM (inactive). For the same compound, the GI50 (U-251) was 14.8 µM (inactive), the GI50 (SK-OV-3) was 34.4 µM (inactive) and the GI50 (UACC-62) was 19.9 µM (inactive). For the same compound, the GI50 (SK-MEL-28) was 17.9 µM (inactive), the GI50 (NCI-H522) was 14.6 µM (inactive) and the GI50 (DU-145) was 15.1 µM (inactive). For the same compound, the GI50 (TK-10) was 31.7 µM (inactive), the GI50 (SNB-19) was 36.8 µM (inactive) and the GI50 (CAKI-1) was 17.9 µM (inactive). The GI50 (HCT-116) was 6.93 µM (inactive), the GI50 (UO-31) was 6.27 µM (inactive) and the GI50 (MCF7) was 16 µM (inactive). The GI50 (MDA-MB-435) was 14.7 µM (inactive), the GI50 (SK-MEL-2) was 18.3 µM (inactive) and the GI50 (OVCAR-4) was 11.7 µM (inactive). For the same compound, the GI50 (HOP-62) was 22.8 µM (inactive), the GI50 (ACHN) was 28.4 µM (inactive) and the GI50 (HL-60) was 10.9 µM (inactive). The GI50 (RPMI-8226) was 12.7 µM (inactive), the GI50 (MOLT-4) was 15.6 µM (inactive) and the GI50 (KM12) was 14.6 µM (inactive). For the same compound, the GI50 (MDA-MB-231) was 29 µM (inactive), the GI50 (OVCAR-5) was 35.1 µM (inactive) and the GI50 (HCC 2998) was 31.6 µM (inactive). The GI50 (HCT-15) was 18 µM, the GI50 (A549) was 23.2 µM (inactive) and the GI50 (HOP-92) was > 100 µM (inactive). For the same compound, the GI50 (IGROV-1) was 7.28 µM (inactive), the GI50 (SF-539) was 16.4 µM (inactive) and the GI50 (SW-620) was 5.62 µM (inactive). For the same compound, the GI50 (SF-295) was 20.9 µM (inactive), the GI50 (PC-3) was 25.8 µM (inactive) and the GI50 (MDA-N) was 18.3 µM (inactive). For the same compound, the GI50 (T47D) was 20.8 µM (inactive), the GI50 (RXF 393) was 7.23 µM (inactive) and the GI50 (UACC-257) was 23.8 µM (inactive). The GI50 (NCI-H23) was 10.4 µM (inactive), the GI50 (SF-268) was 22.6 µM (inactive) and the GI50 (NCI-H460) was 7.93 µM (inactive). The GI50 (OVCAR-3) was 19.5 µM (inactive), the GI50 (OVCAR-8) was 27.1 µM (inactive) and the GI50 (NCI/ADR-RES) was 34.3 µM (inactive). The GI50 (Hs-578T) was 23.6 µM (inactive), the GI50 (HT-29) was 27.2 µM (inactive) and the GI50 (BT-549) was 20.9 µM (inactive). For the same compound, the GI50 (COLO 205) was 26.8 µM (inactive), the GI50 (EKVX) was 28.1 µM (inactive) and the GI50 (M14) was 21.6 µM (inactive). The GI50 (K562) was 20.1 µM (inactive), the GI50 (Malme-3M) was 20 µM (inactive) and the GI50 (CCRF-CEM) was 9.66 µM (inactive).

`OC1=C2c3ccccc3NC2Oc2cc(F)ccc21` (stereo unspecified) was tested, and the GI50 (LOX IMVI) was 16.4 µM (inactive), the GI50 (SK-MEL-5) was 15 µM (inactive) and the GI50 (A498) was 15.3 µM (inactive). For the same compound, the GI50 (U-251) was 15.7 µM (inactive), the GI50 (SK-OV-3) was 12.7 µM (inactive) and the GI50 (UACC-62) was 15.7 µM (inactive). For the same compound, the GI50 (786-0) was 16 µM (inactive), the GI50 (SK-MEL-28) was 30.1 µM (inactive) and the GI50 (NCI-H522) was 17.7 µM (inactive). For the same compound, the GI50 (DU-145) was 18.5 µM (inactive), the GI50 (TK-10) was 25.1 µM (inactive) and the GI50 (SN12C) was 12.7 µM (inactive). The GI50 (SNB-19) was 20.3 µM (inactive), the GI50 (CAKI-1) was 19.5 µM (inactive) and the GI50 (HCT-116) was 14 µM (inactive). For the same compound, the GI50 (UO-31) was 13.9 µM (inactive), the GI50 (MCF7) was 24.9 µM (inactive) and the GI50 (MDA-MB-435) was 17.1 µM (inactive). For the same compound, the GI50 (SK-MEL-2) was 19.7 µM (inactive), the GI50 (OVCAR-4) was 16.6 µM (inactive) and the GI50 (HOP-62) was 17.7 µM (inactive). The GI50 (ACHN) was 18.7 µM (inactive), the GI50 (MOLT-4) was 13.6 µM (inactive) and the GI50 (KM12) was 15.4 µM (inactive). The GI50 (MDA-MB-231) was 16.1 µM (inactive), the GI50 (OVCAR-5) was 17.9 µM (inactive) and the GI50 (HCC 2998) was 17.9 µM (inactive). For the same compound, the GI50 (HCT-15) was 15.8 µM, the GI50 (A549) was 19.5 µM (inactive) and the GI50 (HOP-92) was 18 µM (inactive). The GI50 (IGROV-1) was 21.7 µM (inactive), the GI50 (SW-620) was 19.6 µM (inactive) and the GI50 (SF-295) was 14.7 µM (inactive). The GI50 (PC-3) was 18.8 µM (inactive), the GI50 (MDA-N) was 15.8 µM (inactive) and the GI50 (T47D) was 19.2 µM (inactive). The GI50 (RXF 393) was 16.6 µM (inactive), the GI50 (UACC-257) was 19 µM (inactive) and the GI50 (NCI-H23) was 12.9 µM (inactive). The GI50 (SF-268) was 18.2 µM (inactive), the GI50 (NCI-H460) was 18.5 µM (inactive) and the GI50 (OVCAR-3) was 11.9 µM (inactive). The GI50 (OVCAR-8) was 27 µM (inactive), the GI50 (NCI/ADR-RES) was 16.2 µM (inactive) and the GI50 (Hs-578T) was 34.7 µM (inactive). For the same compound, the GI50 (HT-29) was 19.8 µM (inactive), the GI50 (BT-549) was 16 µM (inactive) and the GI50 (COLO 205) was 14.5 µM (inactive). The GI50 (EKVX) was 3.6 µM (inactive), the GI50 (M14) was 17.3 µM (inactive) and the GI50 (NCI-H226) was 22.4 µM (inactive). The GI50 (K562) was 15.6 µM (inactive), the GI50 (Malme-3M) was 20.4 µM (inactive) and the GI50 (CCRF-CEM) was 2.22 µM (inactive).

For `CC1=C(C2=C(C)C(=O)C(=O)c3cc(C)ccc32)c2ccc(C)cc2C(=O)C1=O`, the GI50 (LOX IMVI) was 0.207 µM (active), the GI50 (SK-MEL-5) was 0.206 µM (active) and the GI50 (A498) was 1.59 µM (inactive). For the same compound, the GI50 (U-251) was 0.226 µM (active), the GI50 (SK-OV-3) was 1.45 µM (inactive) and the GI50 (UACC-62) was 0.191 µM (active). For the same compound, the GI50 (786-0) was 0.318 µM (active), the GI50 (SK-MEL-28) was 0.185 µM (active) and the GI50 (NCI-H522) was 0.21 µM (active). For the same compound, the GI50 (DU-145) was 1.44 µM (inactive), the GI50 (TK-10) was 0.64 µM (active) and the GI50 (SN12C) was 0.197 µM (active). The GI50 (SNB-19) was 0.15 µM (active), the GI50 (CAKI-1) was 0.182 µM (active) and the GI50 (HCT-116) was 0.333 µM (active). For the same compound, the GI50 (UO-31) was 0.178 µM (active), the GI50 (MCF7) was 0.218 µM (active) and the GI50 (MDA-MB-435) was 0.201 µM (active). For the same compound, the GI50 (SK-MEL-2) was 0.313 µM (active), the GI50 (OVCAR-4) was 0.221 µM (active) and the GI50 (HOP-62) was 0.451 µM (active). The GI50 (ACHN) was 0.189 µM (active), the GI50 (HL-60) was 0.0199 µM (active) and the GI50 (RPMI-8226) was 0.333 µM (active). The GI50 (MOLT-4) was 0.287 µM (active), the GI50 (SNB-75) was 0.236 µM (active) and the GI50 (KM12) was 0.205 µM (active). The GI50 (MDA-MB-231) was 0.283 µM (active), the GI50 (OVCAR-5) was 0.199 µM (active) and the GI50 (HCC 2998) was 0.155 µM (active). The GI50 (HCT-15) was 0.278 µM, the GI50 (A549) was 1.7 µM (inactive) and the GI50 (HOP-92) was 0.174 µM (active). The GI50 (IGROV-1) was 0.282 µM (active), the GI50 (SF-539) was 0.182 µM (active) and the GI50 (SW-620) was 0.255 µM (active). For the same compound, the GI50 (SF-295) was 0.194 µM (active), the GI50 (PC-3) was 0.298 µM (active) and the GI50 (MDA-N) was 0.187 µM (active). For the same compound, the GI50 (T47D) was 0.249 µM (active), the GI50 (RXF 393) was 0.234 µM (active) and the GI50 (UACC-257) was 0.193 µM (active). The GI50 (NCI-H23) was 0.208 µM (active), the GI50 (SF-268) was 0.203 µM (active) and the GI50 (NCI-H460) was 0.243 µM (active). For the same compound, the GI50 (OVCAR-3) was 0.153 µM (active), the GI50 (OVCAR-8) was 0.245 µM (active) and the GI50 (NCI/ADR-RES) was 0.274 µM (active). For the same compound, the GI50 (Hs-578T) was 0.318 µM (active), the GI50 (HT-29) was 0.277 µM (active) and the GI50 (BT-549) was 0.19 µM (active). For the same compound, the GI50 (COLO 205) was 0.269 µM (active), the GI50 (EKVX) was 0.28 µM (active) and the GI50 (M14) was 0.182 µM (active). The GI50 (NCI-H226) was 1.9 µM (inactive), the GI50 (K562) was 0.185 µM (active) and the GI50 (Malme-3M) was 0.215 µM (active). For the same compound, the GI50 (CCRF-CEM) was 0.152 µM (active).
